Assay results reported in US12227490B2, “Cereblon binding compounds, compositions thereof, and methods of treatment therewith” (Celgene Corporation, priority 2020, dated 2025).
Where a name gives a salt, the structure may show the parent alone.

Biological target: T1, AR (androgen receptor) protein in VCaP cells (Homo sapiens, UniProt P10275)
T1 construct: endogenous in cells; host or cells: VCaP cells
T1 sequence (P10275 1-920): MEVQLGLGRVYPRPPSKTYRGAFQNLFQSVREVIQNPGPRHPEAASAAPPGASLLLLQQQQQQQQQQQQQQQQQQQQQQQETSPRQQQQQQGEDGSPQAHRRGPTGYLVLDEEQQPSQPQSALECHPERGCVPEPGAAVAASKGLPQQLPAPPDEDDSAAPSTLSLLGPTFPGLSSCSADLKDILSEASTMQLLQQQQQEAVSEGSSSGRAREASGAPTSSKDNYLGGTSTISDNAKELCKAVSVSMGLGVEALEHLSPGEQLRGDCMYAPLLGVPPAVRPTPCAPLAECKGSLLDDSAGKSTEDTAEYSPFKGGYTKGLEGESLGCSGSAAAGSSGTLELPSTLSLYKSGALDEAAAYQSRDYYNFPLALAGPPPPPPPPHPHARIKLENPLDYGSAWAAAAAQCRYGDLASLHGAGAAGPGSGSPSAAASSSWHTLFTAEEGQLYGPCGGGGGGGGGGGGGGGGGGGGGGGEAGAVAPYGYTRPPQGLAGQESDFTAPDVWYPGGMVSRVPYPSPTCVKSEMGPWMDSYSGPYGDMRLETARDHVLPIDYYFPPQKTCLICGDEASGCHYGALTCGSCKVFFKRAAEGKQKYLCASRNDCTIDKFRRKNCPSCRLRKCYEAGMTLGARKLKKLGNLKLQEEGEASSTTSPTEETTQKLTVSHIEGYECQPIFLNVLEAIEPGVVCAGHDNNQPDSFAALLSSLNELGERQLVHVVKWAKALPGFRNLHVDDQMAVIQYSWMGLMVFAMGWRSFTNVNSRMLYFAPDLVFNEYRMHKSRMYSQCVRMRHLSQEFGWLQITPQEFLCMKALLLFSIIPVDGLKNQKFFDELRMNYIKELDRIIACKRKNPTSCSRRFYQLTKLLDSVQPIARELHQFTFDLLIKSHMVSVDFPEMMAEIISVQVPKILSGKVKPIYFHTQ
Test: VCAP AR Degradation Assay
Format: cell-based
Conditions: 24 h, AR ELISA; for DC50: concentration of compound when AR level = 50% of DMSO control; for remaining activity at up to 5 µM: top concentration 5 μM, read-out: Y (lowest measured AR level normalized to DMSO control, AR degradation efficiency)
Procedure: VCAP AR Degradation Assay. Test compounds were pre-dispensed into a Corning CellBind 96-well clear bottom plate (Cat #3300) using an acoustic dispenser to make a 10-point concentration series at 1:3 dilution for each compound. The final top concentration of each compound was 5 μM. DMSO at a final concentration of 0.1% was used as a control. VCaP cells cultured in DMEM with 8% fetal bovine serum (FBS) were seeded at 50K cells per well in a 200 μL volume into the compound plate and incubated at 37° C. in a CO2 incubator for 24 h. The medium was carefully removed from the cells and the plate was placed on ice. One hundred μL of ice-cold 1× cell lysis buffer from Cell Signaling Technologies (Cat #9803) was added to each well of the cells and the plate was incubated at 4° C. on a shaker for 1 h. Fifteen μL of cell lysate was used for AR ELISA detection using a PathScan Total Sandwich AR ELISA kit (Cell Signaling Technology, Cat #12580). AR levels in compound-treated wells were normalized to that of DMSO control and expressed as percent of control (PoC) (y). A Four Parameter Logistic Model (Sigmoidal Dose-Response Model) was used to determine the compound's DC50, and EC50, using the following equation: y=(A+((B−A)/(1+((C/x)^D)))) • A=YMin (lowest AR level normalized to DMSO control in response to compound treatment, as determined by curve fit) • B=YMax (maximum AR level as determined by curve fit) • C=EC50 • D=Hill Slope • x=compound concentration • EC50=the concentration of compound when y=(YMax−YMin)/2 • DC50=the concentration of the compound when y=50% of DMSO control (50% AR degradation) • y=AR protein level normalized to DMSO control
The lowest measured AR level normalized to DMSO control in response to compound treatment, termed Y value, was used to characterize the compound-mediated AR degradation efficiency.

Structure (SMILES)	DC50	remaining activity at up to 5 µM
Cn1nc(C2CCC(=O)NC2=O)c2cccc(NC(=O)CN3CCN(CCCO[C@H]4CC[C@H](N5C(=S)N(c6ccc(C#N)c(C(F)(F)F)c6)C(=O)C5(C)C)CC4)C[C@@H]3C(F)(F)F)c21 (stereo partly drawn) [Cmpd 21, 2-((R)-4-(3-(((trans)-4-(3-(4-Cyano-3-(trifluoromethyl)phenyl)-5,5-dimethyl-4-oxo-2-thioxoimidazolidin-1-yl)cyclohexyl)oxy)propyl)-2-(trifluoromethyl)piperazin-1-yl)-N-(3-(2,6-dioxopiperidin-3-yl)-1-methyl-1H-indazol-7-yl)acetamide]	< 2 nM	0 to 25%
C[C@@H]1CN(CCC[C@H]2CC[C@H](N3C(=S)N(c4ccc(C#N)c(Cl)c4)C(=O)C3(C)C)CC2)C[C@H](C)N1CC(=O)Nc1cccc2c(C3CCC(=O)NC3=O)nn(C)c12 (stereo partly drawn) [Cmpd 11, 2-((2S,6R)-4-(3-(trans-4-(3-(3-Chloro-4-cyanophenyl)-5,5-dimethyl-4-oxo-2-thioxoimidazolidin-1-yl)cyclohexyl)propyl)-2,6-dimethylpiperazin-1-yl)-N-(3-(2,6-dioxopiperidin-3-yl)-1-methyl-1H-indazol-7-yl)acetamide]	5 to 20 nM	30 to 50%
C[C@@H]1CN(CCO[C@H]2CC[C@H](N3C(=S)N(c4cnc(C#N)c(Cl)c4)C(=O)C3(C)C)CC2)C[C@H](C)N1CC(=O)Nc1cccc2c(C3CCC(=O)NC3=O)nn(C)c12 (stereo partly drawn) [Cmpd 6, 2-((2R,6S)-4-(2-((trans-4-(3-(5-Chloro-6-cyanopyridin-3-yl)-5,5-dimethyl-4-oxo-2-thioxoimidazolidin-1-yl)cyclohexyl)oxy)ethyl)-2,6-dimethylpiperazin-1-yl)-N-(3-(2,6-dioxopiperidin-3-yl)-1-methyl-1H-indazol-7-yl)acetamide hydrochloride]	< 2 nM	0 to 25%
C[C@@H]1CN(CCO[C@H]2CC[C@H](N3C(=S)N(c4ccc(C#N)c(Cl)c4)C(=O)C3(C)C)CC2)C[C@H](C)N1CC(=O)Nc1cccc2c(C3CCC(=O)NC3=O)nn(C)c12 (stereo partly drawn) [Cmpd 3, 2-((2R,6S)-4-(2-((trans-4-(3-(3-Chloro-4-cyanophenyl)-5,5-dimethyl-4-oxo-2-thioxoimidazolidin-1-yl)cyclohexyl)oxy)ethyl)-2,6-dimethylpiperazin-1-yl)-N-(3-(2,6-dioxopiperidin-3-yl)-1-methyl-1H-indazol-7-yl)acetamide hydrochloride]	< 2 nM	0 to 25%
C[C@@H]1C[C@H](CCO[C@H]2CC[C@H](N3C(=S)N(c4ccc(C#N)c(C(F)(F)F)c4)C(=O)C3(C)C)CC2)C[C@H](C)N1CC(=O)Nc1cccc2c(C3CCC(=O)NC3=O)nn(C)c12 (stereo partly drawn) [Cmpd 13, 2-((2R,4r,6S)-4-(2-((trans-4-(3-(4-Cyano-3-(trifluoromethyl)phenyl)-5,5-dimethyl-4-oxo-2-thioxoimidazolidin-1-yl)cyclohexyl)oxy)ethyl)-2,6-dimethylpiperidin-1-yl)-N-(3-(2,6-dioxopiperidin-3-yl)-1-methyl-1H-indazol-7-yl)acetamide hydrochloride]	2 to 5 nM	0 to 25%
C[C@@H]1C[C@H](OCC[C@H]2CC[C@H](N3C(=S)N(c4ccc(C#N)c(C(F)(F)F)c4)C(=O)C3(C)C)CC2)C[C@H](C)N1CC(=O)Nc1cccc2c(C3CCC(=O)NC3=O)nn(C)c12 (stereo partly drawn) [Cmpd 26, 2-((2R,4r,6S)-4-(2-((trans)-4-(3-(4-Cyano-3-(trifluoromethyl)phenyl)-5,5-dimethyl-4-oxo-2-thioxoimidazolidin-1-yl)cyclohexyl)ethoxy)-2,6-dimethylpiperidin-1-yl)-N-(3-(2,6-dioxopiperidin-3-yl)-1-methyl-1H-indazol-7-yl)acetamide]	5 to 20 nM	0 to 25%
C[C@@H]1C[C@H](CCO[C@H]2CC[C@H](N3C(=S)N(c4cnc(C#N)c(C(F)(F)F)c4)C(=O)C3(C)C)CC2)C[C@H](C)N1CC(=O)Nc1cccc2c(C3CCC(=O)NC3=O)nn(C)c12 (stereo partly drawn) [Cmpd 15, 2-((2R,4r,6S)-4-(2-(((trans)-4-(3-(6-Cyano-5-(trifluoromethyl)pyridine-3-yl)-5,5-dimethyl-4-oxo-2-thioxoimidazolidin-1-yl)cyclohexyl)oxy)ethyl)-2,6-dimethylpiperidin-1-yl)-N-(3-(2,6-dioxopiperidin-3-yl)-1-methyl-1H-indazol-7-yl)acetamide]	< 2 nM	0 to 25%
Cn1nc(C2CCC(=O)NC2=O)c2cccc(NC(=O)CN3CCC(CCO[C@H]4CC[C@H](N5C(=S)N(c6cnc(C#N)c(C(F)(F)F)c6)C(=O)C5(C)C)CC4)C(F)(F)C3)c21 (stereo partly drawn) [Cmpd 29, 2-(4-(2-(((trans)-4-(3-(6-Cyano-5-(trifluoromethyl)pyridin-3-yl)-5,5-dimethyl-4-oxo-2-thioxoimidazolidin-1-yl)cyclohexyl)oxy)ethyl)-3,3-difluoropiperidin-1-yl)-N-(3-(2,6-dioxopiperidin-3-yl)-1-methyl-1H-indazol-7-yl)acetamide]	< 2 nM	0 to 25%
C[C@@H]1CN(CCCO[C@H]2CC[C@H](N3C(=S)N(c4ccc(C#N)c(C(F)(F)F)c4)C(=O)C3(C)C)CC2)C[C@H](C)N1CC(=O)Nc1cccc2c(C3CCC(=O)NC3=O)nn(C)c12 (stereo partly drawn) [Cmpd 8, 2-((2R,6S)-4-(3-((trans-4-(3-(4-Cyano-3-(trifluoromethyl)phenyl)-5,5-dimethyl-4-oxo-2-thioxoimidazolidin-1-yl)cyclohexyl)oxy)propyl)-2,6-dimethylpiperazin-1-yl)-N-(3-(2,6-dioxopiperidin-3-yl)-1-methyl-1H-indazol-7-yl)acetamide]	< 2 nM	25 to 30%
Cn1nc(C2CCC(=O)NC2=O)c2cccc(NC(=O)CN3CCN(CCC[C@H]4CC[C@H](N5C(=S)N(c6cnc(C#N)c(C(F)(F)F)c6)C(=O)C5(C)C)CC4)C[C@@H]3C(F)(F)F)c21 (stereo partly drawn) [Cmpd 17, 2-((R)-4-(3-((trans)-4-(3-(6-Cyano-5-(trifluoromethyl)pyridin-3-yl)-5,5-dimethyl-4-oxo-2-thioxoimidazolidin-1-yl)cyclohexyl)propyl)-2-(trifluoromethyl)piperazin-1-yl)-N-(3-(2,6-dioxopiperidin-3-yl)-1-methyl-1H-indazol-7-yl)acetamide]	2 to 5 nM	0 to 25%
C[C@@H]1C[C@H](OCCC[C@H]2CC[C@H](N3C(=S)N(c4cnc(C#N)c(C(F)(F)F)c4)C(=O)C3(C)C)CC2)C[C@H](C)N1CC(=O)Nc1cccc2c(C3CCC(=O)NC3=O)nn(C)c12 (stereo partly drawn) [Cmpd 24, 2-((2R,4r,6S)-4-(3-((trans)-4-(3-(6-Cyano-5-(trifluoromethyl)pyridin-3-yl)-5,5-dimethyl-4-oxo-2-thioxoimidazolidin-1-yl)cyclohexyl)propoxy)-2,6-dimethylpiperidin-1-yl)-N-(3-(2,6-dioxopiperidin-3-yl)-1-methyl-1H-indazol-7-yl)acetamide]	5 to 20 nM	0 to 25%
Cn1nc(C2CCC(=O)NC2=O)c2cccc(NC(=O)CN3CCN(CCO[C@H]4CC[C@H](N5C(=S)N(c6cnc(C#N)c(C(F)(F)F)c6)C(=O)C5(C)C)CC4)C[C@@H]3C(F)(F)F)c21 (stereo partly drawn) [Cmpd 22, 2-((R)-4-(2-(((trans)-4-(3-(6-Cyano-5-(trifluoromethyl)pyridin-3-yl)-5,5-dimethyl-4-oxo-2-thioxoimidazolidin-1-yl)cyclohexyl)oxy)ethyl)-2-(trifluoromethyl)piperazin-1-yl)-N-(3-(2,6-dioxopiperidin-3-yl)-1-methyl-1H-indazol-7-yl)acetamide]	< 2 nM	0 to 25%
